According to patent US9120774B2 (University of Kansas, priority 2009, dated 2015):

Key:
[1] = system: Hsp90 client protein Her-2 in Skbr3 breast cancer cells; experiment: Degradation of Her-2, Western blot in Skbr3 cells; format: cell-based
Experimental: After incubation, the cells were harvested, lysed, and equal amounts of the protein lysates loaded into SDS wells. After electrophoresis, the gel was probed with Her-2 and actin (control) antibodies.

[2] = system: MCF-7 (estrogen receptor positive breast cancer cells); experiment: Anti-proliferation activity against MCF-7 cells (MTS/PMS); format: cell-based; details: up to 100 μM
Method in brief: (§1)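 Cells seeded at 2000/well, attached overnight, then exposed to compound at varying concentrations (1% DMSO final) for 72 hours at 37° C. Viable cells read by MTS/PMS, normalised to 1% DMSO as 100% proliferation. IC50 from separate triplicate experiments.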

[3] = system: SkBr3 (Her2 overexpressing breast cancer cells); experiment: Anti-proliferation activity against SkBr3 cells (MTS/PMS); format: cell-based; details: up to 100 μM
Method in brief: as §1

[4] = system: Hsp90-dependent client protein phospho-AKT in SKBr3 breast cancer cells; experiment: Degradation of phospho-AKT, Western blot in SKBr3 cells; format: cell-based; details: 100 μM
Experimental: Total protein concentration of each lysate was determined and equal amounts of protein were run in each lane of the gels. For the graphs shown in FIG. 1, the O.D.'s (optical density) of the Western bands for phospho-AKT were measured, as were the O.D.'s for actin probed as controls on the same blots. To obtain the graphed values, all specific O.D.'s (for Hsp90 clients) were normalized to the respective actin O.D.
Inhibition of Hsp90 results in the degradation of Hsp90-dependent clients via ubiquitination of the unfolded client followed by proteasome-mediated hydrolysis. […] Geldanamycin (GDA, 0.5 μM) was used as a positive control for Hsp90 inhibition.

[5] = system: Hsp70 in primary cortical neurons; experiment: Hsp70 up-regulation in neuronal cells (immunoblot); format: cell-based, rat
Experimental: Inhibition of Hsp90 induces overexpression of both Hsp90 and Hsp70 through dissociation of Hsp90-HSF-1 complexes and subsequent translocation of HSF-1 to the nucleus. […] Thus, in this example, an immunoblot analysis of neuronal cells was performed for Hsp70.
Primary cortical neurons were prepared as described herein. Cells were incubated (37° C. in 5% CO2) with the indicated concentrations of GA or KU-1/A4 for 24 or 48 hours. Cells were washed three times with phosphate buffered saline (PBS), followed by addition of a cell lysis buffer (50 mM Tris-HCL, 150 mM NaCl, 5 mM EDTA, 5 mM EGTA, 1% NP40, 10% Glycerol, 1 mM Na3VO4, 10 mM sodium molybdate, 40 mM NaF, and 10 ul/ml of Calbiochem protease inhibitor cocktail III). Cells were collected by scraping the dishes and aspirating all contents. […] The membranes were probed with the indicated primary HSP70 antibody (1:500, Upstate Biotechnology) and immunoreactive proteins detected using the Lumiglo Western Blot Protein Detector Kit (KPL). The immunoblots were scanned using a Kodak Image Station 2000R to determine the pixel density of the bands and imported into Photoshop and analyzed as described in Zaidi et al., Oxidative inactivation of purified plasma membrane Ca2+-ATPase by hydrogen peroxide and protection by calmodulin, Biochem. 42 12001-12010 (2003). All blots were re-probed with antibodies to β-actin I-19R (Santa Cruz) as a loading control and the data are presented as the ratio of Hsp70 to actin in each lane. Cells from at least three separate cultures for each treatment condition were examined, and the significance of differences in the immunoreactivities of the bands observed under the various treatment conditions was assessed by Student's t-test for unpaired samples.

Q: How did the “IC50 (concentration producing 50% degradation of Her-2)” value ([1]; 24 hours, normalized against actin) turn out when `CO[C@@H]1[C@@H](O)[C@@H](O)[C@H](Oc2ccc3cc(NC(C)=O)c(=O)oc3c2)OC1(C)C` [KU-1/A4, N-(7-((2R,3R,4S,5R)-3,4-dihydroxy-5-methoxy-6,6-dimethyl-tetrahydro-2H-pyran-2-yloxy)-2-oxo-2H-chromen-3-yl)acetamide] was run?
A: The value was “low micromolar range”.

Q: What about the “concentrations between which a rapid decrease in Her-2 was observed” value ([1]; tested at 100 nM, 1 μM and 10 μM) of the same molecule?
A: Its value is “between 100 nM and 1 μM”.

Q: And the “anti-proliferative effects MCF-7” value [2]?
A: The value was “no anti-proliferative effects”.

Q: And the “anti-proliferative effects SkBr3” value [3]?
A: Its value is “no anti-proliferative effects”.

Q: And the “degradation of phosphorylated AKT (Hsp90 inhibition)” value [4]?
A: Its value is “the most potent novobiocin analogues identified”.

Q: What about the “Hsp70 levels (ratio of Hsp70 to actin)” value ([5]; 0.2 μM, 48 hours) of the same molecule?
A: Its value is “significantly increased Hsp70 levels”.

Q: What about the “lowest concentration leading to increases in Hsp70 levels” value ([5]; 48 hours, compared to DMSO controls) of the same molecule?
A: The value was 1 nM.

Q: What about the Hsp70 levels ([5]; higher concentrations (1 and 10 μM)) of the same molecule?
A: The Hsp70 levels was “did not significantly increase Hsp70 levels”.
